Results published in PMC10144301, “Antiseizure Properties of Histamine H3 Receptor Antagonists Belonging 3,4-Dihydroquinolin-2(1H)-Ones” (Molecules, 2023).
pIC50: −log10 of the molar value. Values joined by “and” are separate entries in the source; they are usually repeats but may differ in a detail not shown here. Equal values may be shown once. “Also recorded” adds a separate entry of the source.

Assays:
H3R = H3R (Homo sapiens, UniProt Q9Y5N1); experiment: CRE luciferase reporter assay for H3R antagonistic activity; type: cell-based
Sequence of H3R (Q9Y5N1 whole entry, species assumed): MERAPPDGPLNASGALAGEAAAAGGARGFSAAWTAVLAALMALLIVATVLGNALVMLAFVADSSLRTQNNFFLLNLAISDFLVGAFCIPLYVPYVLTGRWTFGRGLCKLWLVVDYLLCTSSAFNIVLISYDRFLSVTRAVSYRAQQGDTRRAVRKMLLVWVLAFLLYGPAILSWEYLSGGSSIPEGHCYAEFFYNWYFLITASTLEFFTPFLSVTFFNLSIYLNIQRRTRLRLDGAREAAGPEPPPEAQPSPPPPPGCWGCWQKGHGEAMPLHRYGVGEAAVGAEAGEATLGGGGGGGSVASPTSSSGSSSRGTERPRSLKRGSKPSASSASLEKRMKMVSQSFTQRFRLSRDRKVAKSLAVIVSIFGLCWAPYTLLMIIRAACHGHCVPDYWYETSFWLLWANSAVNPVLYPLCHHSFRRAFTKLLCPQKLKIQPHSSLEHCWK
Protocol: Firstly, all the target compounds were screened at 5 μM and 50 μM. […] The detailed experimental operations refer to the previous paper.

[1] = test system: maximal electroshock seizure (MES) model; experiment: Maximal electroshock seizure (MES) model; type: in vivo; details: mice; for Duration of tonic hind limb extension (THLE), protection in MES model: i.p., compared to control group; for Protection in MES model at lowest dosage: 3 mg/kg, compared to control (saline); for Dose dependence of protection in MES model: doses of 3, 10 and 30 mg/kg
Protocol: One of the two test models is the MES seizure model, another is the PTZ-induced seizure model. […] In addition, the administration of this dosage can minimize the impact of other possible side effects such as central inhibition and cardiac toxicity. […] In addition, the tested dose of VPA was 300 mg/kg. It could be seen that all animals in the control group experienced hindlimb stiffness after the electrical stimulation in the MES model. In the treated group, the definition of protection was the reduction or vanishing of the tonic hind limb extension (THLE) in mice. […] The neurological safety of the compounds 2h, 4a, and 4b was evaluated by the rotarod test. In the MES test, the definition of protection was the reduction or vanishing of the THLE in mice. In the PTZ test, the seizures were induced through the subcutaneous administration of PTZ (85 mg/kg). The antiseizure activities of the compounds in the PTZ test were evaluated by comparing the convulsion scores in mice between taking the compounds or not. VPA and PIT were used as positive drugs. To explore the anticonvulsive mechanism, compound 4a (10 mg/kg) was co-injected with RAMH (10 mg/kg). In addition, the THLE was recorded and compared with that of the mice treated by compound 4a alone. The detailed experimental operations in the MES, PTZ, and rotarod tests refer to our previous paper. All the animal experiments were carried out on 4-week-old KunMing male mice weighing from 20 to 25 g. The mice were housed collectively in polycarbonate cages in groups of 30, where they were maintained on a 12 h light/dark cycle in a temperature controlled (25 ± 2 °C) laboratory with free access to food and water. In the MES and PTZ models, seven animals were used in each group. In the rotarod test, three animals were used in each group. Each animal was used only once. All the experiments referring to animals were applied according to the Guide for the Care and Use of Laboratory Animals and were approved by the Medical Ethics Committee of Jinggangshan University, approval number: 220811002.

[2] = test system: maximal electroshock seizure (MES) model; set-up: method as in PMID 33325568; details: administrated combined with H3R agonist RAMH; cited from earlier work
[3] = Rotarod test for neurotoxicity; type: in vivo; details: mice; for Death of treated animals: 300 mg/kg; for Neurotoxicity: rotarod test, i.p., three animals per group
Protocol: A rotarod test was carried out to estimate the neurological safety of compounds 2h, 4a, and 4b.
The neurological safety of the compounds 2h, 4a, and 4b was evaluated by the rotarod test. In the MES test, the definition of protection was the reduction or vanishing of the THLE in mice. In the PTZ test, the seizures were induced through the subcutaneous administration of PTZ (85 mg/kg). The antiseizure activities of the compounds in the PTZ test were evaluated by comparing the convulsion scores in mice between taking the compounds or not. VPA and PIT were used as positive drugs. To explore the anticonvulsive mechanism, compound 4a (10 mg/kg) was co-injected with RAMH (10 mg/kg). In addition, the THLE was recorded and compared with that of the mice treated by compound 4a alone. The detailed experimental operations in the MES, PTZ, and rotarod tests refer to our previous paper. All the animal experiments were carried out on 4-week-old KunMing male mice weighing from 20 to 25 g. The mice were housed collectively in polycarbonate cages in groups of 30, where they were maintained on a 12 h light/dark cycle in a temperature controlled (25 ± 2 °C) laboratory with free access to food and water. In the MES and PTZ models, seven animals were used in each group. In the rotarod test, three animals were used in each group. Each animal was used only once. All the experiments referring to animals were applied according to the Guide for the Care and Use of Laboratory Animals and were approved by the Medical Ethics Committee of Jinggangshan University, approval number: 220811002.

[4] = test system: PTZ-induced seizure model; experiment: Pentylenetetrazole (PTZ)-induced seizure model; type: in vivo; details: mice, 300 mg/kg, i.p.; PTZ 85 mg/kg s.c.
Protocol: One of the two test models is the MES seizure model, another is the PTZ-induced seizure model. […] In addition, the administration of this dosage can minimize the impact of other possible side effects such as central inhibition and cardiac toxicity. […] In addition, the tested dose of VPA was 300 mg/kg. The PTZ model was usually used to screen the antiepileptic candidates for the absence of seizures. In this work, compounds 2a-2i, 3a-3c, and 4a-4b were also evaluated for their antiseizure action in the PTZ model in mice, while using VPA as the positive drug. […] The failure of synthesized compounds in the PTZ model is expected because our previously reported H3R inhibitors were also ineffective in the PTZ model. […] A considerable increase in histamine levels was found in the brain after MES-induced seizures, whereas a tendency toward a decrease in histamine levels was observed after PTZ-kindled convulsions. […] The neurological safety of the compounds 2h, 4a, and 4b was evaluated by the rotarod test. In the MES test, the definition of protection was the reduction or vanishing of the THLE in mice. […] The antiseizure activities of the compounds in the PTZ test were evaluated by comparing the convulsion scores in mice between taking the compounds or not. […] In addition, the THLE was recorded and compared with that of the mice treated by compound 4a alone. […]

In the case of `CN1CCN(CCCOc2ccc3c(c2)CCC(=O)N3)CC1` [Compound 2e, 6-(3-(4-Methylpiperazin-1-yl)propoxy)-3,4-dihydroquinolin-2(1H)-one], the pIC50 (H3R) was 4.42 and the melting point was 159 to 160 °C.
With `O=C1CCc2cc(OCCCN3CCN(c4ccccc4)CC3)ccc2N1` [Compound 2f, 6-(3-(4-Phenylpiperazin-1-yl)propoxy)-3,4-dihydroquinolin-2(1H)-one] the pIC50 (H3R) was 4.59 and the melting point was 199 to 201 °C.
In the case of `CCN(CC)CCCOc1ccc2c(c1)CCC(=O)N2` [Compound 2a, 6-(3-(Diethylamino)propoxy)-3,4-dihydroquinolin-2(1H)-one hydrochioride], the pIC50 (H3R) was 6.28, the “Duration of tonic hind limb extension (THLE), protection in MES model” value (shortened to “Duration of tonic hind limb extension”) ([1]; 10 mg/kg) was “no significant difference” and the melting point was 68 to 70 °C.
In the case of `O=C1CCc2cc(OCCCN3CCCC3)ccc2N1` [Compound 2c, 6-(3-(Pyrrolidin-1-yl)propoxy)-3,4-dihydroquinolin-2(1H)-one hydrochioride], the pIC50 (H3R) was 6.33, the “Duration of tonic hind limb extension” value ([1]; 10 mg/kg) was “no significant difference” and the melting point was 120 to 122 °C.
For `Cc1nc(-c2ccc(OCCCN3CCCCC3)cc2)co1` [I], the “Antiseizure activity in MES test when combined with RAMH” value [2] is given as “completely vanished”.
For `O=C1CCc2cc(OCCCN3CCCCC3)ccc2N1` [Compound 2h, 6-(3-(Piperidin-1-yl)propoxy)-3,4-dihydroquinolin-2(1H)-one], the pIC50 (H3R) was 6.92, the “Protection in MES model at lowest dosage” value [1] was “no significant difference” and the “Duration of tonic hind limb extension” value ([1]; 10 mg/kg, 10 mg/kg) was “decreased the duration of THLE significantly; also recorded: antiseizure activity”. For the same compound, the “Dose dependence of protection in MES model” value (“Dose dependence of protection” below) [1] was “dose-dependent manner”, the “Death of treated animals” value [3] was “all animals” and the Neurotoxicity ([3]; 10 mg/kg) was 0/3. For the same compound, the Neurotoxicity ([3]; 30 mg/kg) was 0/3 and the Neurotoxicity ([3]; 100 mg/kg, 100 mg/kg) was “one mouse in three and 1/3”.
With `CCCN(CCC)CCCOc1ccc2c(c1)CCC(=O)N2.Cl` [Compound 2b, 6-(3-(Dipropylamino)propoxy)-3,4-dihydroquinolin-2(1H)-one hydrochloride] the pIC50 (H3R) was < 4.30 and the melting point was 57 to 59 °C.
For `CCCCCN1C(=O)CCc2cc(OCCCN3CCCCC3)ccc21` [Compound 4b, 1-Pentyl-6-(3-(piperidin-1-yl)propoxy)-3,4-dihydroquinolin-2(1H)-one], the pIC50 (H3R) was 5.72, the “Protection in MES model at lowest dosage” value [1] was “no significant difference” and the “Duration of tonic hind limb extension” value ([1]; 10 mg/kg, 10 mg/kg) was “decreased the duration of THLE significantly; also recorded: antiseizure activity”. For the same compound, the “Dose dependence of protection” value [1] was “dose-dependent manner”, the “Death of treated animals” value [3] was “two-thirds of mice” and the Neurotoxicity ([3]; 10 mg/kg) was 0/3. For the same compound, the Neurotoxicity ([3]; 30 mg/kg) was 0/3 and the Neurotoxicity ([3]; 100 mg/kg, 100 mg/kg) was “no neurotoxicity and 0/3”.
With `CCCN1C(=O)CCc2cc(OCCCN3CCCCC3)ccc21` [Compound 4a, 6-(3-(Piperidin-1-yl)propoxy)-1-propyl-3,4-dihydroquinolin-2(1H)-one] the pIC50 (H3R) was 6.43, the “Protection in MES model at lowest dosage” value [1] was “no significant difference” and the “Duration of THLE in MES model when combined with H3R agonist RAMH” value ([1]; 10 mg/kg i.p., co-injected with RAMH 10 mg/kg i.p.) was “fully vanished; also recorded: cannot decrease the duration of THLE”. The “Duration of tonic hind limb extension” value ([1]; 10 mg/kg, 10 mg/kg) was “decreased the duration of THLE significantly; also recorded: antiseizure activity”, the “Dose dependence of protection” value [1] was “dose-dependent manner” and the “Death of treated animals” value [3] was “two-thirds of mice”. For the same compound, the Neurotoxicity ([3]; 10 mg/kg) was 0/3, the Neurotoxicity ([3]; 30 mg/kg) was 0/3 and the Neurotoxicity ([3]; 100 mg/kg, 100 mg/kg) was “no neurotoxicity and 0/3”.
In the case of `CCCC(CCC)C(=O)[O-].[Na+]` [VPA, valproic sodium, reference compound], the “Duration of tonic hind limb extension” value ([1]; 300 mg/kg) was “decreased the duration of THLE significantly” and the “Protection against seizures induced by PTZ (seizure score)” value [4] was “fully inhibited the seizure induced by PTZ”.
For `O=C1CCc2cc(OCCCCCN3CCCCC3)ccc2N1` [Compound 3c, 6-((5-(Piperidin-1-yl)pentyl)oxy)-3,4-dihydroquinolin-2(1H)-one], the pIC50 (H3R) was < 4.30 and the melting point was 150 to 151 °C.
With `O=C1CCc2cc(OCCCN3CCC(c4ccccc4)CC3)ccc2N1` [Compound 2i, 6-(3-(4-Phenylpiperidin-1-yl)propoxy)-3,4-dihydroquinolin-2(1H)-one] the pIC50 (H3R) was 4.41 and the melting point was 174 to 176 °C.
`O=C1CCc2cc(OCCCCN3CCCCC3)ccc2N1` [Compound 3b, 6-(4-(Piperidin-1-yl)butoxy)-3,4-dihydroquinolin-2(1H)-one] gave a pIC50 (H3R) of 5.54 and a melting point of 150 to 151 °C.
Compound `O=C1CCc2cc(OCCCN3CCOCC3)ccc2N1` [Compound 2g, 6-(3-(Morpholino)propoxy)-3,4-dihydroquinolin-2(1H)-one] has a pIC50 (H3R) of 4.34 and a melting point of 146 to 147 °C.
`O=C1CCc2cc(OCCN3CCCCC3)ccc2N1` [Compound 3a, 6-(2-(Piperidin-1-yl)ethoxy)-3,4-dihydroquinolin-2(1H)-one] showed a pIC50 (H3R) of 5.13 and a melting point of 147 to 149 °C.
For `O=C1CCc2cc(OCCCN3CCNCC3)ccc2N1` [Compound 2d, 6-(3-(Piperazin-1-yl)propoxy)-3,4-dihydroquinolin-2(1H)-one], the pIC50 (H3R) was < 4.30 and the melting point was 150 to 151 °C.
